Measurements as given in US20260250318A1, “COMPOSITIONS AND METHODS FOR CROSSING THE BLOOD BRAIN BARRIER” (VOYAGER THERAPEUTICS, INC., priority 2022, published 2026).
Non-standard residues stand in square brackets, D forms with d. Residues, ends and D or L forms follow the SMILES beside them. *: point of attachment. Biotin = O=C1N[C@H]2[C@H](CS[C@H]2CCCCC(=O)*)N1; pS = N[C@@H](COP(=O)(O)O)C(=O)O

Legend:
ALPL [1] = target: T1, ALPL (Homo sapiens, UniProt P05186); assay: SPR (Biacore 8K) binding of peptide ligands to ALPL; conditions: peptides 0 to 50 μM
T1 sequence (P05186 18-501): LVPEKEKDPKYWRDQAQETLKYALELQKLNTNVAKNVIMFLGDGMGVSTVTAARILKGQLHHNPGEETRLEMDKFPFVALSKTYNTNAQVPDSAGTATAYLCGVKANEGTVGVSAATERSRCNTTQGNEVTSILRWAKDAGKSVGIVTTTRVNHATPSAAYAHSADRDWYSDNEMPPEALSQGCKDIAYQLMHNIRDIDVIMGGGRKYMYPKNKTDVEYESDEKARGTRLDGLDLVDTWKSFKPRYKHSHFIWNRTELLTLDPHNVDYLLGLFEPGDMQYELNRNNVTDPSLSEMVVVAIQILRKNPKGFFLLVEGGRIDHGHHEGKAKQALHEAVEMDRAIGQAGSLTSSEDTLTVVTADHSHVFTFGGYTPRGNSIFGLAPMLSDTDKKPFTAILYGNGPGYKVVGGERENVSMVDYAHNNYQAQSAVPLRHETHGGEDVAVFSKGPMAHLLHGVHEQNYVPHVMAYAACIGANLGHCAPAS
Procedure: Binding and interaction between the peptides and the ALPL receptor were measured by Surface Plasmon Resonance (SPR) on a Biacore 8K instrument. The biotinylated peptides in Table 37 were captured on the streptavidin biosensor chip and 1000 nM of ALPL and buffer were passed over the peptides to monitor binding. […] His-tagged ALPL was then captured on the chip pre-immobilized with anti-His antibody, and 50 μM of the peptides in Table 37 or 250 nM of the AAV9 control capsid, the TTM-001 capsid variant (SEQ ID NO: 981), or the TTM-002 capsid variant (SEQ ID NO: 982) were flowed over the ALPL to check for binding. […] The longer peptides derived from TTM-002,
were also flowed over the his-tagged ALPL captured on the CM5 sensor chip pre-immobilized with anti-His antibody.
Binding and interaction between the phosho-peptides and the ALPL receptor were also measured by SPR. The biotinylated and phosphorylated peptides in Table 38 were captured on the streptavidin biosensor chip along with their non-phosphorylated counterparts, […] (SEQ ID NO: 4500) and […] (SEQ ID NO: 4503). ALPL and buffer were passed over the peptides to monitor binding. The concentration of ALPL used ranged from 0 to 500 nM (0 nM, 125 nM, 250 nM, and 500 nM).
In a second experiment, his-tagged ALPL was first captured on a CM5 sensor chip pre-immobilized with anti-His antibody. The phosphorylated peptides in Table 38 and their non-phosphorylated counterparts, […] (SEQ ID NO: 4500) and […] (SEQ ID NO: 4503) and buffer were flowed over the ALPL protein to monitor binding.

ALPL [2] = target: T1, ALPL; assay: biochemical; type: binding; conditions: for binding to ALPL by ELISA: ALPL coated on wells
Text: Binding of the phospho-peptides of SEQ ID NO: 4512 and 4513 along with their non-phosphorylated counterparts, […] (SEQ ID NO: 4500) and […]

His-tagged ALPL = target: T2, His-tagged ALPL (Homo sapiens, UniProt P05186); assay: Bio Layer Interferometry (BLI)/Octet binding of peptides to ALPL; conditions: for binding to ALPL by BLI/Octet: ALPL 1.56 to 100 nM
T2 sequence (P05186 18-501): T1 sequence (P05186 18-501)
Text: Binding of the phospho-peptides of SEQ ID NO: 4512 and SEQ ID NO: 4513 to ALPL was also investigated using Bio Layer Interferometry (BLI)/Octet.

[3] = target: human ALPL (soluble protein used in the ELISA and SPR of Example 14) (human) (UniProt P05186); assay: SPR (Biacore), antibody captured on the chip, 1.6 to 1000 nM of human ALPL flowed over

Kd [3] [µM]	koff [3] [s⁻¹]	kon [3] [M⁻¹ s⁻¹]	Compound	binding to ALPL by SPR, his-tagged ALPL captured on chip (ALPL [1])	EC50 (ALPL [2]) [µM]	binding to ALPL by ELISA (ALPL [2])	Kd (His-tagged ALPL) [µM]	koff (His-tagged ALPL) [s⁻¹]	kon (His-tagged ALPL) [M⁻¹ s⁻¹]	binding to ALPL by BLI/Octet (His-tagged ALPL)	binding to ALPL at a pH of 5.5 (His-tagged ALPL; pH 5.5)
–	–	–	NCCCC[C@H](NC(=O)[C@H](Cc1c[nH]cn1)NC(=O)[C@@H]1CCCN1C(=O)[C@H](COP(=O)(O)O)NC(=O)[C@H](CC(=O)O)NC(=O)[C@H](Cc1c[nH]cn1)NC(=O)CNC(=O)[C@H](CC(N)=O)NC(=O)[C@H](CO)NC(=O)CNC(=O)[C@H](CO)NC(=O)CNC(=O)CCCC[C@@H]1SC[C@@H]2NC(=O)N[C@@H]21)C(=O)N[C@@H](CO)C(=O)NCC(N)=O [SEQ ID NO: 4512] (Biotin-GSGSNGHD[pS]PHKSG-NH2)	low signal with dose dependency	0.763	dose-dependent binding to ALPL	0.112	0.0026	23000	demonstrated binding to ALPL	–
–	–	–	CC[C@H](C)[C@H](NC(=O)[C@@H](NC(=O)[C@H](CCCCN)NC(=O)[C@H](CO)NC(=O)CNC(=O)[C@H](CO)NC(=O)CNC(=O)CCCC[C@@H]1SC[C@@H]2NC(=O)N[C@@H]21)[C@@H](C)O)C(=O)N[C@@H](CC(N)=O)C(=O)NCC(=O)N[C@@H](Cc1c[nH]cn1)C(=O)N[C@@H](CC(=O)O)C(=O)N[C@@H](COP(=O)(O)O)C(=O)N1CCC[C@H]1C(=O)N[C@@H](Cc1c[nH]cn1)C(=O)N[C@@H](CCCCN)C(=O)N[C@@H](CO)C(=O)NCC(=O)N[C@@H](CCC(N)=O)C(=O)N[C@@H](CC(N)=O)C(=O)N[C@@H](CCC(N)=O)C(N)=O [SEQ ID NO: 4513] (Biotin-GSGSKTINGHD[pS]PHKSGQNQ-NH2)	low signal with dose dependency	4.29	dose-dependent binding to ALPL	0.0207	0.00067	32000	demonstrated binding to ALPL	no binding was observed
0.215	0.0015	6800	Human Alkaline Phosphatase/ALPL Antibody, clone B4-78 (MAB1448-SP)	–	–	–	–	–	–	–	–
